US20060258736A1, “DOSING REGIMEN” (Bristol-Myers Squibb Company, priority 2005, published 2006)
“Also recorded” adds a separate entry of the source.

Columns and labels:
Format in all cases: in vivo, human
[1] = tested on: advanced solid tumors refractory to standard therapy; test: Phase I clinical trial, twice weekly oral dosing: tumor response (modified WHO criteria)
Protocol: Patients with histologically confirmed, advanced solid tumors refractory to standard therapy, ECOG performance status 0-2, and adequate live, renal and bone marrow function without symptomatic brain metastasis or pre-existing neuropathy ≧grade 2 were eligible for the trial. The starting dose was 60 mg/m^2 with planned dose escalation of 20 mg/m^2 for each next cohort, consisting of at least 3 patients. Cohorts were expanded to 6 patients upon occurrence of a dose limiting toxicity (DLT). No premedication was required. Tumor response was evaluated according to the modified WHO criteria.

[2] = tested on: patients with advanced solid tumors; test: Phase I clinical trial, twice weekly oral dosing: toxicity (NCI-CTC version 2.0) and dose limiting toxicities; conditions: for Neuropathy / neurotoxicity on twice weekly regimen compared to weekly schedule: twice weekly vs weekly
Protocol: Patients with histologically confirmed, advanced solid tumors refractory to standard therapy, ECOG performance status 0-2, and adequate live, renal and bone marrow function without symptomatic brain metastasis or pre-existing neuropathy ≧grade 2 were eligible for the trial.
The starting dose was 60 mg/m^2 with planned dose escalation of 20 mg/m^2 for each next cohort, consisting of at least 3 patients. Cohorts were expanded to 6 patients upon occurrence of a dose limiting toxicity (DLT). No premedication was required.
Toxicity was evaluated according to NCI-CTC (version 2.0).
Dose limiting toxicities (DLTs) were defined as any of the following drug related events occurring during the first cycle (first 4 weeks): grade 4 neutropenia>5 days, febrile neutropenia, grade 4 thrombocytopenia or grade 3 requiring platelet transfusion, any grade 3-4 non-hematological toxicity, QTc interval>500 msec, any significant arrhythmia, any dose reduction or omission due to toxicity.

patients = test: Neuropathy on the weekly treatment schedule (comparison, n = 48)
[3] = any cycle, 19 patients, 60-100 mg/m^2 twice weekly

Neuropathy (any cycle) Grade 1, no. of patients (patients; Weekly schedule (n = 48)): 6
Neuropathy (any cycle) Grade 1, percent of patients (patients; Weekly schedule (n = 48)): 13%
Neuropathy (any cycle) Grade 2, no. of patients (patients; Weekly schedule (n = 48)): 19
Neuropathy (any cycle) Grade 2, percent of patients (patients; Weekly schedule (n = 48)): 40%
Neuropathy (any cycle) Grade 3, no. of patients (patients; Weekly schedule (n = 48)): 6
Neuropathy (any cycle) Grade 3, percent of patients (patients; Weekly schedule (n = 48)): 12%
Neuropathy (any cycle) Total, no. of patients (patients; Weekly schedule (n = 48)): 31
Neuropathy (any cycle) Total, percent of patients (patients; Weekly schedule (n = 48)): 65%
SMILES: COC(=O)O[C@@]12CO[C@@H]1C[C@H](O)[C@@]1(C)C(=O)[C@H](OC(C)=O)C3=C(C)[C@@H](OC(=O)[C@H](O)[C@@H](NC(=O)OC(C)(C)C)C(C)(C)C)C[C@@](O)([C@@H](OC(=O)c4ccccc4)[C@H]21)C3(C)C [Compound I, 3′-tert-butyl-3′-N-tert-butyloxycarbonyl-4-deacetyl-3′-dephenyl-3 ′-N-debenzoyl-4-O-methoxycarbonyl-paclitaxel]
Confirmed partial responses ([1]; 18 response-evaluable patients): three confirmed partial responses were observed in 18 response-evaluable patients
Confirmed partial responses, no. of patients ([1]; of 3 prostate carcinoma patients): 1
Confirmed partial responses, no. of patients ([1]; of 6 response-evaluable NSCLC patients): 2
Antitumor activity ([1]; patients with NSCLC and prostate carcinoma): Promising activity has been observed
Dose limiting toxicities (DLTs) ([2]; 60 mg/m^2 twice weekly (n=3), first cycle): No dose limiting toxicities (DLTs) have been observed
Dose limiting toxicities (DLTs), number ([2]; 80 mg/m^2 twice weekly (n=10), first cycle, a grade 3 fatigue and a dose-omission due to grade 2 peripheral neuropathy): 2
Toxicity shortly after the first cycle (not meeting DLT criteria) ([2]; 100 mg/m^2 twice weekly): one patient developed grade 4 neutropenia, grade 3 fatigue and grade 3 hematuria
Dose limiting toxicities (DLTs) ([2]; 100 mg/m^2 twice weekly, first three patients, first cycle): no DLTs were observed in the first three patients
Neuropathy (any cycle) Grade 1, no. of patients ([2]; Twice weekly schedule (n = 19)): 8
Neuropathy (any cycle) Grade 1, percent of patients ([2]; Twice weekly schedule (n = 19)): 42%
Neuropathy (any cycle) Grade 2, no. of patients ([2]; Twice weekly schedule (n = 19)): 2
Neuropathy (any cycle) Grade 2, percent of patients ([2]; Twice weekly schedule (n = 19)): 10%
Neuropathy (any cycle) Total, no. of patients ([2]; Twice weekly schedule (n = 19)): 10
Neuropathy (any cycle) Total, percent of patients ([2]; Twice weekly schedule (n = 19)): 52%
Drug-related side effects: Abdominal pain, Gr 1-2 (no. of patients) [2, 3]: 2
Drug-related side effects: Alopecia, Gr 1-2 (no. of patients) [2, 3]: 3
Drug-related side effects: Anorexia, Gr 1-2 (no. of patients) [2, 3]: 6
Drug-related side effects: Diarrhea, Gr 1-2 (no. of patients) [2, 3]: 9
Drug-related side effects: Epistaxis, Gr 1-2 (no. of patients) [2, 3]: 7
Drug-related side effects: Fatigue, Gr 1-2 (no. of patients) [2, 3]: 7
Drug-related side effects: Fatigue, Gr 3 (no. of patients) [2, 3]: 2
Drug-related side effects: Hematuria, Gr 3 (no. of patients) [2, 3]: 1
Drug-related side effects: Motor neuropathy, Gr 1-2 (no. of patients) [2, 3]: 1
Drug-related side effects: Myalgia, Gr 1-2 (no. of patients) [2, 3]: 3
Drug-related side effects: Nausea, Gr 1-2 (no. of patients) [2, 3]: 3
Drug-related side effects: Neutropenia, Gr 1-2 (no. of patients) [2, 3]: 1
Drug-related side effects: Neutropenia, Gr 4 (no. of patients) [2, 3]: 1
Drug-related side effects: Sens. neuropathy, Gr 1-2 (no. of patients) [2, 3]: 10
Drug-related side effects: Stomatitis, Gr 1-2 (no. of patients) [2, 3]: 1
Drug-related side effects: Taste disturbance, Gr 1-2 (no. of patients) [2, 3]: 7
Drug-related side effects: Thrombocytopenia, Gr 1-2 (no. of patients) [2, 3]: 5
Drug-related side effects: Vomiting, Gr 1-2 (no. of patients) [2, 3]: 2
Tolerability ([2]; twice weekly treatment regimen): well tolerated
Neuropathy / neurotoxicity on twice weekly regimen compared to weekly schedule [2]: reduces peripheral neuropathy; also recorded: neuropathy appears to be less frequent and less severe; also recorded: Neuropathy appears to occur less frequently and to be less severe than on a weekly treatment schedule
Neuropathy / neurotoxicity on twice weekly regimen compared to weekly schedule ([2]; listed as 3′-tert-butyl-3′-N-tert-butyloxycarbonyl-4-deacetyl-3′-dephenyl-3′-N-debenzoyl-4): may reduce the neurotoxicity of the drug
Main and dose limiting toxicity (patients; weekly treatment regimen): peripheral neuropathy
